Assay results from ChEMBL document CHEMBL4229570, “Pyrrolo[2,1-c][1,4] benzodiazepine-3,11-diones protect SHSY-5Y cells from Cd-induced apoptosis involving suppression of endoplasmic reticulum stress” (Bioorg Med Chem, 2018).
Activity calls are given as the source filed them. The calls are words filed in the database; no cut-off is given here.

Tests used:
SH-SY5Y [1] = test: Neuroprotective activity against CdCl2-induced toxicity in human SH-SY5Y cells assessed as cell viability at 25 uM preincubated for 2 hrs followed by CdCl2 challenge and measured after 24 hrs by CCK8 assay (reference value: 46.2 +/- 1.7%); assay type: functional; details: read-out: Activity
SH-SY5Y [2] = test: Neuroprotective activity against CdCl2-induced endoplasmic reticulum stress-mediated apoptosis in human SH-SY5Y cells assessed as downregulation of GRP78 protein expression at 25 uM preincubated for 2 hrs followed by CdCl2 challenge and measured after 24 hrs by Western blot analysis; assay type: functional, cell-based
SH-SY5Y [3] = test: Induction of apoptosis in human SH-SY5Y cells at 25 uM after 24 hrs by annexin V/propidium iodide staining-based flow cytometric analysis relative to control; assay type: cell-based
SH-SY5Y [4] = test: Neuroprotective activity against CdCl2-induced endoplasmic reticulum stress-mediated apoptosis in human SH-SY5Y cells assessed as downregulation of cleaved caspase-12 protein expression at 25 uM preincubated for 2 hrs followed by CdCl2 challenge and measured after 24 hrs by Western blot analysis; assay type: functional, cell-based
SH-SY5Y [5] = test: Neuroprotective activity against CdCl2-induced endoplasmic reticulum stress-mediated apoptosis in human SH-SY5Y cells assessed as downregulation of cleaved caspase-3 protein expression at 25 uM preincubated for 2 hrs followed by CdCl2 challenge and measured after 24 hrs by Western blot analysis; assay type: functional, cell-based
SH-SY5Y [6] = test: Neuroprotective activity against CdCl2-induced apoptosis in human SH-SY5Y cells assessed as apoptosis rate at 25 uM preincubated for 2 hrs followed by CdCl2 challenge and measured after 24 hrs by annexin V/propidium iodide staining-based flow cytometric analysis (reference value: 73.2%); assay type: functional
SH-SY5Y [7] = test: Neuroprotective activity against CdCl2-induced endoplasmic reticulum stress-mediated apoptosis in human SH-SY5Y cells assessed as downregulation of CHOP protein expression at 25 uM preincubated for 2 hrs followed by CdCl2 challenge and measured after 24 hrs by Western blot analysis; assay type: functional, cell-based

| SMILES | viability at 25 µM (SH-SY5Y [1]) | other results |
| --- | --- | --- |
| O=C1Nc2ccccc2CN2C(=O)CC[C@@H]12 | 52.2% |  |
| Cc1ccc(-c2ccc3c(c2)CN2C(=O)CC[C@@H]2C(=O)N3)cc1 | 36.2% |  |
| O=C1Nc2cc3c(cc2CN2C(=O)CC[C@@H]12)OCO3 | 59.2% |  |
| Cc1ccccc1-c1ccc2c(c1)CN1C(=O)CC[C@@H]1C(=O)N2 | 42.3% |  |
| O=C1Nc2ccc(Br)cc2CN2C(=O)CC[C@@H]12 | 66.1% |  |
| O=C1Nc2ccc(Br)cc2CN2C(=O)CC[C@H]12 | 60.4% |  |
| COc1cc2c(cc1OCc1ccccc1)CN1C(=O)CC[C@H]1C(=O)N2CCCCN1CCN(c2ccccn2)CC1 | 68.6% | Activity (SH-SY5Y [2]): Active; Activity (SH-SY5Y [3]): 4.2 to 5%; Activity (SH-SY5Y [4]): Active; Activity (SH-SY5Y [5]): Active; Activity (SH-SY5Y [6]): 18.7%; Activity (SH-SY5Y [7]): Active |
| O=C1[C@@H]2CCC(=O)N2Cc2ccccc2N1CCCCCN1CCN(c2ccccn2)CC1 | 59.2% |  |
| O=C1Nc2cc3c(cc2CN2C(=O)CC[C@H]12)OCO3 | 56.6% |  |
| O=C1Nc2ccc(Cl)cc2CN2C(=O)CC[C@H]12 | 56.2% |  |
| COc1cc2c(cc1OCc1ccccc1)CN1C(=O)CC[C@H]1C(=O)N2CCCCN1CCN(c2ncccn2)CC1 | 62.2% |  |
| O=C1[C@@H]2CCC(=O)N2Cc2ccccc2N1CCCCCN1CCN(c2ncccn2)CC1 | 51.4% |  |
| O=C1[C@@H]2CCC(=O)N2Cc2cc(Br)ccc2N1CCCCN1CCN(c2ccccn2)CC1 | 62.4% |  |
| Cc1ccc(-c2ccc3c(c2)CN2C(=O)CC[C@H]2C(=O)N3)cc1 | 33.9% |  |
| O=C1[C@@H]2CCC(=O)N2Cc2ccccc2N1CCCCN1CCN(c2ncccn2)CC1 | 59.2% |  |
| COc1cc2c(cc1OCc1ccccc1)CN1C(=O)CC[C@@H]1C(=O)N2 | 60.4% |  |
| COc1cc2c(cc1OCc1ccccc1)CN1C(=O)CC[C@H]1C(=O)N2 | 66.2% |  |
| O=C1Nc2ccc(Cl)cc2CN2C(=O)CC[C@@H]12 | 61.4% |  |
| O=C1[C@@H]2CCC(=O)N2Cc2ccccc2N1CCCN1CCN(c2ncccn2)CC1 | 51.3% |  |
| O=C1[C@@H]2CCC(=O)N2Cc2ccccc2N1CCCCN1CCN(c2ccccn2)CC1 | 66.2% |  |
| Cc1ccccc1-c1ccc2c(c1)CN1C(=O)CC[C@H]1C(=O)N2 | 39.8% |  |
| COc1cc2c(cc1O)CN1C(=O)CC[C@H]1C(=O)N2 | 55.7% |  |
| COc1cc2c(cc1O)CN1C(=O)CC[C@@H]1C(=O)N2 | 56.8% |  |
| O=C1[C@@H]2CCC(=O)N2Cc2cc(Br)ccc2N1CCCCN1CCN(c2ncccn2)CC1 | 63.1% |  |
| O=C1Nc2ccccc2CN2C(=O)CC[C@H]12 | 48.4% |  |
| O=C1[C@@H]2CCC(=O)N2Cc2ccccc2N1CCCN1CCN(c2ccccn2)CC1 | 56.7% |  |
